This is an account of results in article PMC9266550, “The 2-hydroxy-3-(4-aryl-1-piperazinyl)propyl Phthalimide Derivatives as Prodrugs—Spectroscopic and Theoretical Binding Studies with Plasma Proteins” (International Journal of Molecular Sciences, 2022).

Each structure is given as a SMILES string.

Test [1] has as its target T1, bovine serum albumin (BSA) (Bos taurus, UniProt P02769).
T1 construct: gene ALB; native plasma protein, commercial (Sigma-Aldrich), mature form
Kind of test: intrinsic fluorescence quenching, excitation […] nm. The class given is binding. The conditions noted are these: 297 K, phosphate buffer pH 7.5, no site marker; double-log.

For test [2], the target named is T2, bovine α1-acid glycoprotein (AAG), orosomucoid (Bos taurus, UniProt Q3SZR3).
T2 construct: gene ORM1; native plasma glycoprotein, commercial (Sigma-Aldrich), mature form
T2 sequence (Q3SZR3 19-202): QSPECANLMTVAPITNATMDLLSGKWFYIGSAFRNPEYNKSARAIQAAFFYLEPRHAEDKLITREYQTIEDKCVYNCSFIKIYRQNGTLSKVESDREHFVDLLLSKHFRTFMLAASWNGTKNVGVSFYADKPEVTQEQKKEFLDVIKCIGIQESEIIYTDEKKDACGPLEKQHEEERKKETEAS
Kind of test: intrinsic fluorescence quenching, excitation […] nm. The class given is binding. The conditions noted are these: 297 K, phosphate buffer pH 7.5; double-log.

T1 sequence (P02769 25-607): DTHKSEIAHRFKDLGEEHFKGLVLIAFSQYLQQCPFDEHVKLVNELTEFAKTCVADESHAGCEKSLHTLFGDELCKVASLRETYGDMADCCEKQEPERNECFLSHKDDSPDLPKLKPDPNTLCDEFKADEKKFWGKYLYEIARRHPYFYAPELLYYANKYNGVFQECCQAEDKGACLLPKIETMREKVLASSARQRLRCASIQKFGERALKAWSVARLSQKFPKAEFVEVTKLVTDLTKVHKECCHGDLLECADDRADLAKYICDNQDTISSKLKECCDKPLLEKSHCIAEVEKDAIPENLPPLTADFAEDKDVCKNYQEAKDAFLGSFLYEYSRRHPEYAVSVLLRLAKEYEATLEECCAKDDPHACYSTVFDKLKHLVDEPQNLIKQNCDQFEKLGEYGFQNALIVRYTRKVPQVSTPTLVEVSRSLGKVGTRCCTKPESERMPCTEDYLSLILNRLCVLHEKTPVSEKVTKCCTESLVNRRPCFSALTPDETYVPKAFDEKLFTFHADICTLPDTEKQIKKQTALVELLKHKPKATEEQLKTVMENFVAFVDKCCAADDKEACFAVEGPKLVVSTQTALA

For the compound `O=C1c2ccccc2C(=O)N1CC(O)CN1CCN(C(c2ccccc2)c2ccccc2)CC1` (centres unmarked) [F4], in test [1], the “Binding / Kb × 10^5 [dm^3.mol^-1]” value is on record as 1.99 × 10^5 dm^3·mol^−1. In addition, the “Binding / Kb × 10^3 [dm^3.mol^-1]” value in test [2] was 2.75 × 10^3 dm^3·mol^−1.
As to `O=C1c2ccccc2C(=O)N1CC(O)CN1CCN(c2cccc(C(F)(F)F)c2)CC1` (centres unmarked) [F3], in test [1], the “Binding / Kb × 10^5 [dm^3.mol^-1]” value is 1.75 × 10^5 dm^3·mol^−1. The “Binding / Kb × 10^3 [dm^3.mol^-1]” value in test [2] is listed as 4.17 × 10^3 dm^3·mol^−1.
Taken in the same sequence, the figures for `COc1ccccc1N1CCN(CC(O)CN2C(=O)c3ccccc3C2=O)CC1` (centres unmarked) [F2] were 0.55 × 10^5 dm^3·mol^−1 and 1.21 × 10^3 dm^3·mol^−1.
In the case of `O=C1c2ccccc2C(=O)N1CC(O)CN1CCN(c2ccccc2)CC1` (centres unmarked) [F1], the “Binding / Kb × 10^5 [dm^3.mol^-1]” value in test [1] is given as 2.13 × 10^5 dm^3·mol^−1. Moreover, the “Binding / Kb × 10^3 [dm^3.mol^-1]” value in test [2] was 2.12 × 10^3 dm^3·mol^−1.
